The values that follow come from patent US20130122024A1, “NEW BINDER-DRUG CONJUGATES (ADCS) AND USE THEREOF” (Bayer Intellectual Property GmbH, priority 2011, published 2013).

One data set concerns tubulin. The data set can be described thus: Fluorescence-based microtubule (tubulin) polymerization assay. Format: biochemical. Here is the method: Tubulin polymerization was investigated using the “Fluorescence-based Microtubule Polymerisation Assay Kit” from Cytoskeleton (Denver, Colo., USA; order number: BK011). With this assay, GTP is added to unpolymerized tubulin, allowing polymerization to take place spontaneously. The assay is based on the binding of the fluorophore 4′,6-di-amidino-2-phenylindole (DAPI) to tubulin. Free and bound DAPI can be differentiated on the basis of different emission spectra.
[…] In addition to the buffer control, paclitaxel, with a polymerization-increasing effect, and vinblastin, with a polymerization inhibiting effect, were run additionally as assay controls. Measurement was carried out using 96-well plates with a half base area. The kinetics of the tubulin polymerization were monitored in a Fluorimeter at 37° C. for 1 hour. The excitation wavelength was 355 nm, and emission was monitored at 460 nm. For the region of linear increase within the first 10 minutes, a calculation was made of the change in fluorescence per minute (ΔF/min), which represents the polymerization rate of the microtubuli. The potency of the test substances was quantified on the basis of their respective reduction of the polymerization rate.
The reduction in the tubulin polymerization rate occurs in dependence on the concentration of the test substance added.

The next data set relates to Caco-2 cells. The data set can be described thus: Caco-2 flux assay for cell permeability. Format: in vitro ADME. The following applies: 2 hours, B to A. Here is the method:
(§1) The cell permeability of a substance can be investigated by means of in vitro testing in a flux assay using Caco-2 cells [M. D. Troutman and D. R. Thakker, Pharm. Res. 20 (8), 1210-1224 (2003)]. For this purpose, the cells were cultured for 15-16 days on 24-well filter plates. For the determination of permeation, the respective working example was applied in a HEPES buffer to the cells either apically (A) or basally (B) and incubated for 2 hours. After 0 hours and after 2 hours, samples were taken from the cis and trans compartments. The samples were separated by HPLC (Agilent 1200, Böblingen, Germany) using reverse phase columns. The HPLC system was coupled via a Turbo Ion Spray Interface to a Triple Quadropol mass spectrometer API 4000 (Applied Biosystems Applera, Darmstadt, Germany). The permeability was evaluated on the basis of a Papp value, which was calculated using the formula published by Schwab et al. [D. Schwab et al., J. Med. Chem. 46, 1716-1725 (2003)].

Data set [1] can be described thus: Caco-2 flux assay for cell permeability. Format: in vitro ADME. Conditions: human, Caco-2 cells, B to A. As for the experimental part:
as §1
For orientation: Caco-2 monolayers are a common model of the intestinal barrier.

The next data set addresses Mesothelin (Homo sapiens, UniProt Q13421-3 37-598, GPI anchor). The data set can be described thus: cell-based or functional assay.
The mark [2] stands for this setting: concentration of toxophore 10 μM.
[3] abbreviates: concentration of toxophore 1 μM.

Structures can show the parent of a compound that is named as a salt. Square brackets hold non-standard residues; d marks the D form. Peptide text beside a SMILES is read from it. * marks the point of attachment. X2 = CC(C)[C@@H](C(=O)*)N(C)CCCCCCN1C(=O)CC(SC[C@H](N)C(=O)O)C1=O; X1 = CC(C)[C@@H](C(=O)*)N(C)CCCCCC(=O)NCCCC[C@H](N)C(=O)O; Dolaproine = CO[C@@H]([C@@H]1CCCN1)[C@@H](C)C(=O)O; Dil = CC[C@H](C)[C@H](NC)[C@@H](CC(=O)O)OC; X5 = C[C@@H](N*)[C@@H](O)c1ccccc1; Oxazinan2yl(1,2) = C1CCN(*)OC1; NMeV = CN[C@H](C(=O)O)C(C)C

For the molecule `CC[C@H](C)[C@@H]([C@@H](CC(=O)N1CCC[C@H]1[C@H](OC)[C@@H](C)C(=O)N[C@@H](Cc1c[nH]c2ccccc12)C(=O)O)OC)N(C)C(=O)[C@@H](NC(=O)[C@H](C(C)C)N(C)CCCCCCN1C(=O)CC(SC[C@H](N)C(=O)O)C1=O)C(C)C` (stereo partly drawn) [Example 66, N-[6-(3-{[(2R)-2-Amino-2-carboxyethyl]sulphanyl}-2,5-dioxopyrrolidin-1-yl)hexyl]-N-methyl-L-valyl-N-[(3R,4S,5S)-1-{(2S)-2-[(1R,2R)-3-{[(1S)-1-carboxy-2-(1H-indol-3-yl)ethyl]amino}-1-methoxy-2-methyl-3-oxopropyl]pyrrolidin-1-yl}-3-methoxy-5-methyl-1-oxoheptan-4-yl]-N-methyl-L-valinamide] (X2-V[Dil][Dolaproine]W-OH), in the data set with tubulin (setting [2]), the “Tubulin polymerization in the presence of toxophore in [%]. Tubulin polymerization rate at 1 μM MMAF set at 100%” value (“Tubulin polymerization in the presence … at 100%” below) is listed as 25%. The “Papp (B-A)” value in the data set on Caco-2 cells came out at 0.1 ×10⁻⁶ cm/s.

With `CC[C@H](C)[C@@H]([C@@H](CC(=O)N1CCC[C@H]1[C@H](OC)[C@@H](C)C(=O)N[C@H](C)[C@@H](O)c1ccccc1)OC)N(C)C(=O)[C@@H](NC(=O)[C@@H](NC)C(C)C)C(C)C` [MMAE, monomethylauristatin E, reference compound] (H-[NMeV]V[Dil][Dolaproine]-X5), in data set [1], the Papp B→A (in general, the apparent permeability from the basolateral to the apical side of a cell layer) at 2 h worked out at 7.3 ×10⁻⁶ cm/s.

Take `CC[C@H](C)[C@@H]([C@@H](CC(=O)N1CCC[C@H]1[C@H](OC)[C@@H](C)C(=O)N[C@@H](Cc1c[nH]c2ccccc12)C(=O)N1CCCCO1)OC)N(C)C(=O)[C@@H](NC(=O)[C@H](C(C)C)N(C)CCCCCC(=O)NCCCC[C@H](N)C(=O)O)C(C)C` [Example 105, N-(6-{[(5S)-5-Amino-5-carboxypentyl]amino}-6-oxohexyl)-N-methyl-L-valyl-N-[(3R,4S,5S)-1-{(2S)-2-[(1R,2R)-3-{[(2S)-3-(1H-indol-3-yl)-1-(1,2-oxazinan-2-yl)-1-oxopropan-2-yl]amino}-1-methoxy-2-methyl-3-oxopropyl]pyrrolidin-1-yl}-3-methoxy-5-methyl-1-oxoheptan-4-yl]-N-methyl-L-valinamide trifluoroacetate] (X1-V[Dil][Dolaproine]W-{Oxazinan2yl(1,2)}): the “Tubulin polymerization in the presence … at 100%” value in the data set on tubulin (setting [3]) is listed as 45%; with tubulin (setting [2]) it was 1%. Further, the “Papp (B-A)” value in the data set on Caco-2 cells is 0.2 ×10⁻⁶ cm/s.

For `CC[C@H](C)[C@@H]([C@@H](CC(=O)N1CCC[C@H]1[C@H](OC)[C@@H](C)C(=O)N[C@@H](Cc1c[nH]c2ccccc12)C(=O)O)OC)N(C)C(=O)[C@@H](NC(=O)[C@H](C(C)C)N(C)CCCCCC(=O)NCCCC[C@H](N)C(=O)O)C(C)C` [Example 106, N-(6-{[(5S)-5-Amino-5-carboxypentyl]amino}-6-oxohexyl)-N-methyl-L-valyl-N-[(3R,4S,5S)-1-{(2S)-2-[(1R,2R)-3-{[(1S)-1-carboxy-2-(1H-indol-3-yl)ethyl]amino}-1-methoxy-2-methyl-3-oxopropyl]pyrrolidin-1-yl}-3-methoxy-5-methyl-1-oxoheptan-4-yl]-N-methyl-L-valinamide] (X1-V[Dil][Dolaproine]W-OH), the figures for the “Tubulin polymerization in the presence … at 100%” value in the data set with tubulin (setting [3]) and in the data set with tubulin (setting [2]) were 80% and 14%, respectively. In addition, in the data set on Caco-2 cells, the “Papp (B-A)” value turned out to be 0.1 ×10⁻⁶ cm/s.

On to `CC[C@H](C)[C@@H]([C@@H](CC(=O)N1CCC[C@H]1[C@H](OC)[C@@H](C)C(=O)N[C@@H](Cc1c[nH]c2ccccc12)C(=O)O)OC)N(C)C(=O)[C@@H](NC(=O)[C@H](C(C)C)N(C)CCCC(=O)NNC(=O)CCCCCN1C(=O)CC(SC[C@H](N)C(=O)O)C1=O)C(C)C` (stereo partly drawn) [Example 63, N-(4-{2-[6-(3-{[(2R)-2-Amino-2-carboxyethyl]sulphanyl}-2,5-dioxopyrrolidin-1-yl)hexanoyl]hydrazino}-4-oxobutyl)-N-methyl-L-valyl-N-[(3R,4S,5S)-1-{(2S)-2-[(1R,2R)-3-{[(1S)-1-carboxy-2-(1H-indol-3-yl)ethyl]amino}-1-methoxy-2-methyl-3-oxopropyl]pyrrolidin-1-yl}-3-methoxy-5-methyl-1-oxoheptan-4-yl]-N-methyl-L-valinamide], for which the “Tubulin polymerization in the presence … at 100%” value in the data set with tubulin (setting [2]) is listed as 27%. Also, the “Papp (B-A)” value with Caco-2 cells came to 0.16 ×10⁻⁶ cm/s.

For `CC[C@H](C)[C@@H]([C@@H](CC(=O)N1CCC[C@H]1[C@H](OC)[C@@H](C)C(=O)N[C@@H](Cc1ccc(O)cc1)C(=O)N1CCCCO1)OC)N(C)C(=O)[C@@H](NC(=O)[C@H](C(C)C)N(C)CCCCCC(=O)NCCCC[C@H](N)C(=O)O)C(C)C` [Example 117, N-(6-{[(5S)-5-Amino-5-carboxypentyl]amino}-6-oxohexyl)-N-methyl-L-valyl-N-[(3R,4S,5S)-1-{(2S)-2-[(1R,2R)-3-{[(2S)-3-(4-hydroxyphenyl)-1-(1,2-oxazinan-2-yl)-1-oxopropan-2-yl]amino}-1-methoxy-2-methyl-3-oxopropyl]pyrrolidin-1-yl}-3-methoxy-5-methyl-1-oxoheptan-4-yl]-N-methyl-L-valinamide trifluoroacetate] (X1-V[Dil][Dolaproine]Y-{Oxazinan2yl(1,2)}), the “Tubulin polymerization in the presence … at 100%” value in the data set on tubulin (setting [3]) is 88%; in the data set on tubulin (setting [2]), 21%. The “Papp (B-A)” value with Caco-2 cells worked out at 0.15 ×10⁻⁶ cm/s.

B1: Example 71 immunoconjugate (MF-Ta ADC) (antibody, human IgG1, lambda, V domains shown)
VH: QVELVQSGAEVKKPGESLKISCKGSGYSFTSYWIGWVRQAPGKGLEWMGIIDPGDSRTRYSPSFQGQVTISADKSISTAYLQWSSLKASDTAMYYCARGQLYGGTYMDGWGQGTLVTVSS
VL: DIALTQPASVSGSPGQSITISCTGTSSDIGGYNSVSWYQQHPGKAPKLMIYGVNNRPSGVSNRFSGSKSGNTASLTISGLQAEDEADYYCSSYDIESATPVFGGGTKLTVLG
modifications: auristatin linker-toxophore on cysteine sulphur
For B1, in the data set with Mesothelin, the “HT29 meso+ IC50 [nM] (MTT proliferation)” value is 22 nM.
